Activity calls are given as the source filed them. The calls are words filed in the database; no cut-off is given here.
Columns and labels:
BV-2 [1] = assay: Antineuroinflammatory activity in mouse BV2 cells assessed as inhibition of LPS-induced nitric oxide production pretreated for 30 mins followed by LPS-stimulation for 24 hrs by Griess assay; assay type: functional, cell-based
[2] = target: Acetylcholinesterase (Homo sapiens) (UniProt P22303); assay: Inhibition of human erythrocyte AChE at 10 uM using acetylthiocholine chloride as substrate preincubated for 15 mins followed by substrate addition and measured at 1 min time interval by Ellman's method relative to control
[3] = Permeability of the compound in PBS/EtOH at 100 ug/ml after 10 hrs by PAMPA-BBB assay; assay type: ADME; details: read-out: permeability
[4] = target: Cholinesterase (Homo sapiens) (UniProt P06276); assay: Inhibition of human serum BuChE at 10 uM using butyrylthiocholine chloride as substrate preincubated for 15 mins followed by substrate addition and measured at 1 min time interval by Ellman's method relative to control
HT-22 [5] = assay: Neuroprotective activity against glutamate-induced cytotoxicity in mouse HT22 cells assessed as cell viability at 5 uM measured after 24 hrs by MTT assay (reference value: 30%); assay type: functional; details: HT-22, 24 h, read-out: Activity
Beta-secretase 1 = Beta-secretase 1 (Homo sapiens, UniProt P56817); assay: Inhibition of recombinant human BACE1 preincubated with enzyme for 20 mins followed by addition of Rh-EVNLDAEFK-Quencher as substrate measured after 60 mins by FRET assay
HT-22 [6] = assay: Neuroprotective activity against glutamate-induced intracellular oxidative stress in mouse HT22 cells assessed as inhibition of ROS production at 5 uM measured after 12 hrs by DCFH-DA probe based fluorescence method relative to control; assay type: functional, cell-based
BV-2 [7] = assay: Antineuroinflammatory activity in mouse BV2 cells assessed as decrease in LPS-induced secretion of IL-1beta incubated for 30 mins followed by LPS stimulation for 16 hrs by ELISA; assay type: functional, cell-based
BV-2 [8] = assay: Antineuroinflammatory activity in mouse BV2 cells assessed as decrease in LPS-induced TNFalpha expression incubated for 30 mins followed by LPS stimulation for 12 hrs by qPCR method; assay type: functional, cell-based
BV-2 [9] = assay: Neuroprotective activity against glutamate-induced cell damage in […] assessed as change in cell morphology at 5 uM measured after 24 hrs; assay type: functional, cell-based
BV-2 [10] = assay: Antineuroinflammatory activity in mouse BV2 cells assessed as decrease in LPS-induced iNOS mRNA expression incubated for 30 mins followed by LPS stimulation for 12 hrs by qPCR method; assay type: functional, cell-based
BV-2 [11] = assay: Antineuroinflammatory activity in mouse BV2 cells assessed as decrease in LPS-induced secretion of TNFalpha incubated for 30 mins followed by LPS stimulation for 16 hrs by ELISA; assay type: functional, cell-based
HT-22 [12] = assay: Neuroprotective activity against glutamate-induced intracellular oxidative stress in mouse HT22 cells assessed as increase in GSH level at 5 uM measured after 12 hrs relative to control; assay type: functional, cell-based
BV-2 [13] = assay: Antineuroinflammatory activity in mouse BV2 cells assessed as decrease in LPS-induced IL-1beta expression incubated for 30 mins followed by LPS stimulation for 12 hrs by qPCR method; assay type: functional, cell-based
BV-2 [14] = assay: Antineuroinflammatory activity in mouse BV2 cells assessed as decrease in LPS-induced iNOS expression incubated for 30 mins followed by LPS stimulation for 16 hrs by Western blot analysis; assay type: functional, cell-based

Sequence of Beta-secretase 1 (P56817 whole entry): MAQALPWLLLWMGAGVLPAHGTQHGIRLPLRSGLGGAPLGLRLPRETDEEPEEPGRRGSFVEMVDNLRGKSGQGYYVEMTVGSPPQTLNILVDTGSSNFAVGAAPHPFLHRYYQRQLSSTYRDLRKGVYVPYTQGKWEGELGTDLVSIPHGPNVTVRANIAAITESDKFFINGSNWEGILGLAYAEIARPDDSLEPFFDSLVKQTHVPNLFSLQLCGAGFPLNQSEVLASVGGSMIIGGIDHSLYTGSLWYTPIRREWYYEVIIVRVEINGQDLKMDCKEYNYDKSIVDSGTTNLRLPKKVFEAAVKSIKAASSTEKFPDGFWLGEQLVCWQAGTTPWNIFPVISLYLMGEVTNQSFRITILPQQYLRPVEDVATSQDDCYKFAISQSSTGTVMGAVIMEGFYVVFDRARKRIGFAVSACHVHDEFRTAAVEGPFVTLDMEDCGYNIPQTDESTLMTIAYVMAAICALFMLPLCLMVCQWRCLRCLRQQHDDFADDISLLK
Sequence of Acetylcholinesterase (Homo sapiens) (P22303 whole entry): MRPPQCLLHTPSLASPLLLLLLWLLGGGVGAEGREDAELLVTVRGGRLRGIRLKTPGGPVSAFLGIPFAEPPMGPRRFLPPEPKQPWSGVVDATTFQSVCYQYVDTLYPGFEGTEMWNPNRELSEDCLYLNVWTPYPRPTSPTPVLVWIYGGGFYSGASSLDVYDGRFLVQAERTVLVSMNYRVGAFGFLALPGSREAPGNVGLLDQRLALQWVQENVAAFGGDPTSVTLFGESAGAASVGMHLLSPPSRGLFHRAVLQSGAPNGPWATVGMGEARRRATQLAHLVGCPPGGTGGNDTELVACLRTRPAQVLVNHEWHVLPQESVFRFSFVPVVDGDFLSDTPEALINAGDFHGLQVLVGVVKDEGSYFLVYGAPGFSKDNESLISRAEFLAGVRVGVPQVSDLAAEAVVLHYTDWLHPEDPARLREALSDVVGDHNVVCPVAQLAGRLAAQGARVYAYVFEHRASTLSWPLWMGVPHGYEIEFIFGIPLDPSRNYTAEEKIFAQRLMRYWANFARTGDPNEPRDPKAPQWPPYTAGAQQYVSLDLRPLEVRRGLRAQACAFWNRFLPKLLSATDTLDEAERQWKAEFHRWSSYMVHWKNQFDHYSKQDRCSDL
Sequence of Cholinesterase (Homo sapiens) (P06276 whole entry): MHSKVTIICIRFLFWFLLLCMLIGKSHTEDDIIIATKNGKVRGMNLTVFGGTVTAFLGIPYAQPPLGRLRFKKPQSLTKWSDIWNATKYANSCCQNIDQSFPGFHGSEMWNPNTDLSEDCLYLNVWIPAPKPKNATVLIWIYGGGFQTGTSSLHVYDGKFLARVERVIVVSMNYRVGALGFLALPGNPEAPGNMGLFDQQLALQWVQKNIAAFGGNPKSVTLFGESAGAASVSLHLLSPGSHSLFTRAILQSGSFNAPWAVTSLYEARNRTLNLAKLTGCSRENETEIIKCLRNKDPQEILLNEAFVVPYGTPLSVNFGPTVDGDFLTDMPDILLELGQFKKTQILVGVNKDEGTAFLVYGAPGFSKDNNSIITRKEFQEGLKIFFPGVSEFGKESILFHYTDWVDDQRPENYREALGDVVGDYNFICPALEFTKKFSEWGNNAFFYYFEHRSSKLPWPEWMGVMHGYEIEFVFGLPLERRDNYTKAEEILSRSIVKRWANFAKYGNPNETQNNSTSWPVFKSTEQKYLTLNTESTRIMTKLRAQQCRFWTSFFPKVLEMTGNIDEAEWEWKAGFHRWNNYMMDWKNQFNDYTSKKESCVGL

| SMILES | IC50 (BV-2 [1]) | inhibition [2] | Papp at 10 h, 100 ug/ml [3] | inhibition [4] | viability at 5 µM (HT-22 [5]) | other results |
| --- | --- | --- | --- | --- | --- | --- |
| FC(F)(F)c1ccc2nc(-c3cccc(N4CCc5ccccc5C4)c3)[nH]c2c1 | 7.72 µM | 11.9% | 8.7 ×10⁻⁶ cm/s | 11.3% |  |  |
| Oc1ccc2nc(-c3cccc(N4CCc5ccccc5C4)c3)[nH]c2c1 | 5.95 µM | 11.2% | 8.6 ×10⁻⁶ cm/s | 6.8% |  |  |
| COc1ccc2c(c1)CCN(c1cccc(-c3nc4ccc(OC)cc4[nH]3)n1)C2 | > 10 µM | 4.7% | 11.5 ×10⁻⁶ cm/s | 9.7% |  |  |
| Cc1ccc2nc(-c3cccc(N4CCc5ccccc5C4)c3)[nH]c2c1 | 5.7 µM | 5% | 9.6 ×10⁻⁶ cm/s | 20.7% |  |  |
| COc1ccc2c(c1)CCN(c1cccc(-c3nc4ccc(OC)cc4[nH]3)c1)C2 | > 10 µM | 6% | 7.6 ×10⁻⁶ cm/s | 0.3% | 93.1% |  |
| Clc1ccc2nc(-c3cccc(N4CCc5ccccc5C4)n3)[nH]c2c1 | 6.94 µM | 24.3% | 16.7 ×10⁻⁶ cm/s | 19.8% |  | IC50 (Beta-secretase 1): 1.8 µM |
| FC(F)(F)Oc1ccc2nc(-c3cccc(N4CCc5ccccc5C4)n3)[nH]c2c1 | 9.74 µM | 7.6% | 10 ×10⁻⁶ cm/s | 11.7% | 62.1% | IC50 (Beta-secretase 1): 1.1 µM |
| Clc1cc2nc(-c3cccc(N4CCc5ccccc5C4)c3)[nH]c2cc1Cl | 7.93 µM | 16.2% | 9.9 ×10⁻⁶ cm/s | 3.7% |  |  |
| c1cc(-c2nc3ccccc3[nH]2)nc(N2CCc3ccccc3C2)c1 | 7.33 µM | 10.1% | 15.9 ×10⁻⁶ cm/s | 23.2% | 80.3% |  |
| COc1ccc2nc(-c3cccc(N4CCc5ccccc5C4)c3)[nH]c2c1 | 8.28 µM | 10.4% | 5.6 ×10⁻⁶ cm/s | 5.4% |  |  |
| c1cc(-c2nc3ccccc3[nH]2)cc(N2CCc3ccccc3C2)c1 | 6.08 µM | 6.3% | 8.5 ×10⁻⁶ cm/s | 18.3% |  |  |
| Fc1ccc2c(c1)CCN(c1cccc(-c3nc4ccc(F)cc4[nH]3)n1)C2 | 6.43 µM | 19.9% | 14 ×10⁻⁶ cm/s | 33.7% | 71.1% |  |
| Clc1ccc2nc(-c3cccc(N4CCc5ccccc5C4)c3)[nH]c2c1 | > 10 µM | 3.4% | 4.9 ×10⁻⁶ cm/s | 27.6% | 67.6% | IC50 (Beta-secretase 1): 1.3 µM |
| Fc1ccc2nc(-c3cccc(N4CCc5ccccc5C4)c3)[nH]c2c1 | 5.42 µM | 9.5% | 12.6 ×10⁻⁶ cm/s | 17.1% |  |  |
| Fc1cc2nc(-c3cccc(N4CCc5ccccc5C4)n3)[nH]c2cc1F | 6.58 µM | 7.2% | 13.9 ×10⁻⁶ cm/s | 8.9% |  |  |
| Oc1ccc2nc(-c3cccc(N4CCc5ccccc5C4)n3)[nH]c2c1 | 3.8 µM | 7.5% | 13.8 ×10⁻⁶ cm/s | 45.6% | 98.8% |  |
| Nc1cccc2nc(-c3cccc(N4CCc5ccccc5C4)c3)[nH]c12 | > 10 µM | 4.8% | 13 ×10⁻⁶ cm/s | 25.9% | 94.9% |  |
| CC(C)(C)c1ccc2nc(-c3cccc(N4CCc5ccccc5C4)n3)[nH]c2c1 | > 10 µM | 24.6% |  | 3.8% |  |  |
| Fc1cc2[nH]c(-c3cccc(N4CCc5ccccc5C4)c3)nc2cc1Cl | > 10 µM | 10.9% | 10.1 ×10⁻⁶ cm/s | 0.5% | 48.9% |  |
| FC(F)(F)c1ccc2nc(-c3cccc(N4CCc5ccccc5C4)n3)[nH]c2c1 | 9.33 µM | 20.4% | 5.4 ×10⁻⁶ cm/s | 18.6% |  | IC50 (Beta-secretase 1): 3.6 µM |
| COc1ccc2nc(-c3cccc(N4CCc5ccccc5C4)n3)[nH]c2c1 | 5.07 µM | 4.5% | 16.8 ×10⁻⁶ cm/s | 35.6% | 91.8% | inhibition (HT-22 [6]): Active; Activity (BV-2 [7]): Dose-dependent effect; Activity (BV-2 [8]): Dose-dependent effect; Activity (BV-2 [9]): Active; Activity (BV-2 [10]): Dose-dependent effect; Activity (BV-2 [11]): Dose-dependent effect; Activity (HT-22 [12]): Active; Activity (BV-2 [13]): Dose-dependent effect; Activity (BV-2 [14]): Dose-dependent effect |
| Fc1ccc2nc(-c3cccc(N4CCc5ccccc5C4)n3)[nH]c2c1 | 5.7 µM | 6.6% | 14.5 ×10⁻⁶ cm/s | 24.2% | 67.8% |  |
